# Test results from patent US20030104099A1, “Mineral delivery systems and methods” (priority 2001, published 2003).
# Read-outs that look alike come from different tables or passages of the source.
# Assays:
# [1] = for solids in 25 grams of the filtered solution after drying: 2 grams acid + 2 grams calcium carbonate in 50 grams distilled water, four hours, 25 grams dried; for water solubility at ambient: distilled water
# Protocol: To a 250 ml beaker, 2 grams of adipic acid powder is dissolved in 50 grams of distilled water. Then, 2 grams of calcium carbonate powder (Vicron 25-11 FG from Specilaty Minerals, Inc.) are added. […] After four hours, the slurry is filtered through a filter paper.
# To a 250 ml beaker, 2 grams of tartaric acid powder is dissolved in 50 grams of distilled water. Then, 2 grams of calcium carbonate powder are added. […] After four hours, the slurry is filtered through a filter paper.
# To a 250 ml beaker, 2 grams of malic acid powder is dissolved in 50 grams of distilled water. Then, 2 grams of calcium carbonate powder are added. […] After four hours, the slurry is filtered through a filter paper.
# To a 250 ml beaker, 2 grams of citric acid powder is dissolved in 50 grams of distilled water. Then, 2 grams of calcium carbonate powder are added. […] After four hours, the slurry is filtered through a filter paper.
# To a 250 ml beaker, 2 grams of fumaric acid powder is dissolved in 50 grams of distilled water. Then, 2 grams of calcium carbonate powder are added. […] After four hours, the slurry is filtered through a filter paper.
# [2] = 120 grams distilled water, 3 grams acid, 39° C., 50 rpm, 30 minutes mixing, dried at 110° C.
SMILES,solids in 25 grams of the filtered solution after drying [1] [grams],water solubility at ambient [1] [%],solubility in methanol (solids from ALPHA GRANDE bubble gum base fluid),solubility in methanol (solids from DREYCO gum base fluid),soluble calcium salt contained in the fluid ([2]; 75 grams ALPHA GRANDE bubble gum base) [%],soluble calcium salt contained in the fluid ([2]; 75 grams DREYCO gum base) [%]
O=C([O-])/C=C/C(=O)[O-].[Ca+2] [Calcium fumarate],0.6,2.4,not soluble,not soluble,1.19,1.46
O=C([O-])C(O)C(O)C(=O)[O-].[Ca+2] (stereo not drawn) [Calcium tartrate],0.15,,,,,
O=C([O-])CC(O)C(=O)[O-].[Ca+2] (stereo not drawn) [Calcium malate],0.5,2.0,,,,
